According to patent US5438048A, “Methylenebisphosphonic acid derivatives” (Leiras Oy, priority 1990, dated 1995):

Columns and labels:
[1] = Inhibition of hydroxyapatite growth (calcium phosphate crystal formation and precipitation inhibiting activity); assay type: biochemical; design: key to the marks not given beside the values; conditions: at 100 μM
[2] = Binding to hydroxyapatite (effect of bisphosphonates and their derivatives on hydroxyapatite)
mouse calvaria = assay: Parathyroid hormone stimulated bone resorption inhibition activity in vitro in mouse calvaria; assay type: cell-based
Experimental: (§1) In addition, the parathyroid hormone stimulated bone resorption inhibition activity in vitro in mouse calvaria, as well as inhibition of retinoid induced bone resorption in thyroparathyroidectomised rats in vivo were determined (Reynolds & Dingle (Calc Tiss Res 1970; 4:339, and Trechsel et al. (J Clin Invest 1987; 80:1679)) (Table 2).

[3] = test system: retinoid induced bone resorption; assay: Inhibition of retinoid induced bone resorption in thyroparathyroidectomised rats in vivo; conditions: 150 μmole/kg
Experimental: as §1

Structure (SMILES)	Inhibition of growth [1]	Ki [2] [µM]	Inhibition of resorption (%) (mouse calvaria; 100 μm)	Inhibition of resorption (%) (mouse calvaria; 1000 μm)	Inhibition of resorption (%) [3] [%]
CC(C)OP(=O)(O)C(C)(O)P(=O)(O)O (stereo not shown) [(1-Hydroxyethylidene)bisphosphonic acid monoisopropyl ester]	+++	7.3	–	–	–
CCCCC(O)(P(=O)(O)O)P(=O)(O)O [(1-Hydroxypentylidene)bisphosphonate, (1-Hydroxypentylidene)-bisphosphonate, reference compound]	–	–	56	–	–
CCCCC(O)(P(=O)(O)O)P(=O)(O)OC(C)C (stereo not shown) [(1-hydroxypentylidene)bisphosphonic acid monoisopropyl ester]	++	15.4	–	–	–
CCCCC(O)(P(=O)(O)O)P(=O)(O)OC (stereo not shown) [(1-hydroxypentylidene)bisphosphonic acid monomethyl ester]	+++	11.8	7	47	52
O=P(O)(O)C(Cl)(Cl)P(=O)(O)O [Clodronate, reference compound]	+++	1.3	–	–	–
CC(O)(P(=O)(O)O)P(=O)(O)O [Etidronate, reference compound]	–	0.9	–	–	–
